Experimental data reported in patent US8637681B2, “Pyrrolyl substituted dihydroindol-2-one derivatives, preparation methods and uses thereof” (Qilu Pharmaceutical Co., Ltd., priority 2010, dated 2014).

Experiments:
[1] = Cytotoxicity test (SRB), Hela; format: cell-based; details: human, Hela cervical cancer cells
Procedure: Cytotoxicity of the compounds of the present invention was tested with human non-small cell lung cancer cells A549, human cervical cancer Hela cells, human skin cancer cells A431. The test was performed by referring to the method described by Rusnak et al (Rusnak D. W., et al., Cell Prolif., 2007, 40, 580-94). […] Trypsin/ethylenediamine tetraacetic acid (EDTA) were used to harvest cells in cell culture bottle. The cells were added to a 96-well cell culture plate, 4000/well (0.1 ml medium), adhering wall overnight, 0.1 ml of the diluted solution of the compounds to be tested was added, the final concentration of DMSO was 0.25%. The cell culture plate was incubated at 37° C., 5% CO2 conditions for 72 h. […] The absorption at a wavelength of 540 nm was measured. The IC50 (μM) of the compound was calculated using Logit method.

[2] = tested on: human colon cancer HT 29 transplanted tumor; experiment: Nude mice transplanted tumor test; format: in vivo, female Balb/cA nude mice; set-up: key to d21 Vave ± SD (average tumor volume): tumor volume TV = ½×a×b² (a, b = major, minor diameter), in mm³; details: for Dead animal number / inhibition in vivo at 80 mg/kg / d21 Wave ± SD (average bodyweight of nude mice) / d21 Vave ± SD (average tumor volume) / d21 RTV ± SD (relative tumor volume): 80 mg/kg intragastrically each day for 20 days; for Dead animal number: dead/total animals; for inhibition in vivo at 80 mg/kg: Mus musculus, HT-29, po, 504 h, (1−T/C)×100%, read-out: Tumor inhibition rate d21 (%); for inhibition in vivo at 80 mg/kg / d21 Wave ± SD (average bodyweight of nude mice) / d21 Vave ± SD (average tumor volume) / d21 RTV ± SD (relative tumor volume): d21; for d0 Wave ± SD (average bodyweight of nude mice): d0, at grouping before administration (baseline); for d21 Vave ± SD (average tumor volume): HT 29 in nude mice; for d21 RTV ± SD (relative tumor volume): RTV=Vt/V0
Procedure: The nude mice transplanted tumor test used female Balb/cA nude mice, and tumor strains were human colon cancer HT 29 strains.
Under sterile condition, eugonic tumor tissues stage were cut into pieces of about 1.5 mm^3, and inoculated at right axillary fossa of the nude mice. The transplanted tumor diameter was measured by vernier caliper, and the animals were randomly grouped after the tumors grew to about 120 mm^3. The positive control group and the compounds group in a dosage of 80 mg/kg were administered intragastrically each day for consecutive 20 days. The negative control group was given equivalent amount of injection water containing 0.1% Tween 80. Tumor diameters and the bodyweight of mice were measured 2-3 times every week. The evaluation indexes observed in the test include relative tumor proliferation rate, bodyweight and general states. The formulation for calculating tumor volume (TV) is: TV=½×a×b^2, wherein a, b represent major diameter and minor diameter of tumor; Relative tumor volume (RTV) was calculated according the results of measurement by the following formula: RTV=Vt/V0, wherein V0 is tumor volume measured when dividing groups for administration, and Vt is tumor volume measured after each administration.

[3] = Cytotoxicity test (SRB), A549; format: cell-based; details: human, A549 non-small cell lung cancer cells
Procedure: (§1) Cytotoxicity of the compounds of the present invention was tested with human non-small cell lung cancer cells A549, human cervical cancer Hela cells, human skin cancer cells A431. The test was performed by referring to the method described by Rusnak et al (Rusnak D. W., et al., Cell Prolif., 2007, 40, 580-94).
(§2) In Dulbecco's Modified Eagle Medium (DMEM) comprising 10% fetal bovine serum, 2 mM glutamine and non-essential amino acids, cells were cultured at 37° C. in 5% CO2 cell incubator. Trypsin/ethylenediamine tetraacetic acid (EDTA) were used to harvest cells in cell culture bottle. The cells were added to a 96-well cell culture plate, 4000/well (0.1 ml medium), adhering wall overnight, 0.1 ml of the diluted solution of the compounds to be tested was added, the final concentration of DMSO was 0.25%. The cell culture plate was incubated at 37° C., 5% CO2 conditions for 72 h. The change of cellular morphology was observed under microscope, and then 50 μl of 50% (mass/volume) trichloroacetic acid (TCA) was added to each well to fix cells. The final concentration of TCA was 10%. It stood for 5 min, than was placed in 4° C. refrigerator for 1 h, the wells of the culture plate were washed with deionized water for 5 times to remove TCA, drained, dried in air until no wet trace was observed. 100 μl of 0.4% (mass/volume) SRB was added to each well, stood at room temperature for 10 min. The liquid in each well was discarded, and then the wells were washed with 1% acetic acid for 5 times, dried in air, extracted with 150 μl of 10 mM Tris base (trihydroxymethylaminomethane, pH 10.5). The absorption at a wavelength of 540 nm was measured. The IC50 (μM) of the compound was calculated using Logit method.

[4] = tested on: arterial ring angiogenesis in rats; experiment: Inhibitory actions on arterial ring angiogenesis in rats; format: cell-based; details: Rattus norvegicus, area covered by micrangiums vs control well, read-out: Inhibitory rate (%); for inhibition at 0.2 µg/mL: 0.2 μg/ml; for inhibition at 1 µg/mL: 1 μg/ml; for inhibition at 5 µg/mL: 5 μg/ml
Procedure: This experiment was conducted by referring to the method described by R. F. Nicosia et al (Nicosia, R. F., et al. Am J Pathol., 1997, 151, 1379-1386). Rats were executed by cervical dislocation. The thoracic aorta was carefully separated, and placed in a container with physiological saline. The excess tissues were carefully cut off. The blood vessels were cut with a pair of ophthalmic scissors to form 1 mm thick vascular ring slices. To a pre-cooled 96-well cell culture plate, one separated vascular ring was placed in the center of each well. 70 μl of pre-molten Matrigel was carefully added to cover the vascular ring, which was incubated at 37° C. for 1 h so as to solidify it. […] The sample was placed in incubator for conventional culture, and each compound was tested at least in two repeated wells, and each test was repeated twice. […] The fresh culture medium was replaced every 3 days, and the drug was changed at the same time. The survival status of vascular rings was observed under microscope, and pictures were taken at the same time. Image Pro Plus software was used to calculate the area covered by micrangiums. The average inhibition rate was calculated by using the formula: inhibition rate (%)=(area of control well−area of drug well)/area of control well×100%.

[5] = Cytotoxicity test (SRB), A431; format: cell-based; details: human, A431 skin cancer cells
Procedure: as §1, §2

| SMILES | IC50 at 72 h [1] | Dead animal number [2] | inhibition in vivo at 80 mg/kg [2] | d0 Wave ± SD (average bodyweight of nude mice) [2] | d21 Wave ± SD (average bodyweight of nude mice) [2] | d21 Vave ± SD (average tumor volume) ([2]; in mm³ (unit assumed)) | d21 RTV ± SD (relative tumor volume) [2] | IC50 at 72 h [3] | inhibition at 0.2 µg/mL [4] | inhibition at 1 µg/mL [4] | inhibition at 5 µg/mL [4] | IC50 at 72 h [5] | d21 Vave ± SD (average tumor volume) [2] | Activity of inhibiting HT-29 transplanted tumor in vivo (in words) ([2]; 80 mg/kg, compared with positive control Sunitinib) |
| --- | --- | --- | --- | --- | --- | --- | --- | --- | --- | --- | --- | --- | --- | --- |
| CCN1CCN(CC(=O)Nc2c(C)[nH]c(/C=C3\C(=O)Nc4ccc(F)cc43)c2C)CC1 [Compound 18, N-{5-[5-fluoro-2-oxo-1,2-dihydro-indol-(3Z)-ylidenemethyl]-2,4-dimethyl-1H-pyrrol-3-yl}-2-(4-ethylpiperazin-1-yl)acetamide] | 4.15 µM | 0/6 | 90.1% | 19.1 ± 0.48 | 18.9 ± 0.69 | 86.2 ± 45.3 | 0.73 ± 0.45 | > 30 µM | 99% | 100% | 100% | > 30 µM |  |  |
| CCN(CC)CCC(=O)Nc1c(C)[nH]c(/C=C2\C(=O)Nc3ccc(Cl)cc32)c1C [Compound 2, N-{5-[5-chloro-2-oxo-1,2-dihydro-indol-(3Z)-ylidenemethyl]-2,4-dimethyl-1H-pyrrol-3-yl}-3-(N,N-diethylamino)propionamide] | > 30 µM | 0/6 | 63.8% | 18.8 ± 0.35 | 19.9 ± 0.68 |  | 2.60 ± 0.52 | > 30 µM | 94% | 100% | 100% | > 30 µM | 300.3 ± 36.8 |  |
| CCN(CC)CCC(=O)Nc1c(C)[nH]c(/C=C2\C(=O)Nc3ccc(F)cc32)c1C [Compound 1, N-{5-[5-fluoro-2-oxo-1,2-dihydro-indol-(3Z)-ylidenemethyl]-2,4-dimethyl-1H-pyrrol-3-yl}-3-(N,N-diethylamino)propionamide] | > 30 µM | 0/6 | 86.9% | 18.6 ± 1.20 | 18.8 ± 2.97 | 102.8 ± 26.2 | 0.94 ± 0.12 | > 30 µM | 99% | 100% | 100% | > 30 µM |  | inhibitory activity comparable to the positive control Sunitinib |
| CCN(CC)CC(=O)Nc1c(C)[nH]c(/C=C2\C(=O)Nc3ccc(NC(C)=O)cc32)c1C [Compound 28, N-{5-[5-acetylamino-2-oxo-1,2-dihydro-indol-(3Z)-ylidenemethyl]-2,4-dimethyl-1H-pyrrol-3-yl}-2-(N,N-diethylamino)acetamide] | > 30 µM | 0/6 | 77% | 18.8 ± 1.01 | 19.5 ± 0.86 | 204.3 ± 52.7 | 1.65 ± 0.62 | > 30 µM | 90% | 100% | 100% | > 30 µM |  |  |
| Cc1[nH]c(/C=C2\C(=O)Nc3ccc(F)cc32)c(C)c1NC(=O)CN1CCCCC1 [Compound 16, N-{5-[5-fluoro-2-oxo-1,2-dihydro-indol-(3Z)-ylidenemethyl]-2,4-dimethyl-1H-pyrrol-3-yl}-2-(piperidin-1-yl)acetamide] | > 30 µM | 0/6 | 68.7% | 19.5 ± 0.46 | 18.5 ± 0.59 | 268.4 ± 33.8 | 2.25 ± 0.37 | > 30 µM | 91% | 100% | 100% | 6.25 µM |  |  |
| Cc1[nH]c(/C=C2\C(=O)Nc3ccc(F)cc32)c(C)c1NC(=O)CCCN(C)C [Compound 5, N-{5-[5-fluoro-2-oxo-1,2-dihydro-indol-(3Z)-ylidenemethyl]-2,4-dimethyl-1H-pyrrol-3-yl}-4-(N,N-dimethylamino)butyramide] | > 30 µM | 0/6 | 86.6% | 18.9 ± 1.00 | 18.6 ± 0.87 | 111.8 ± 28.2 | 0.96 ± 0.42 | > 30 µM | 93% | 100% | 100% | > 30 µM |  |  |
| CCN(CC)CCC(=O)Nc1c(C)[nH]c(/C=C2\C(=O)Nc3ccc(NS(C)(=O)=O)cc32)c1C [Compound 8, N-{5-[5-methylsulfonylamino-2-oxo-1,2-dihydro-indol-(3Z)-ylidenemethyl]-2,4-dimethyl-1H-pyrrol-3-yl}-3-(N,N-diethylamino)propionamide] | > 30 µM | 0/6 | 78.9% | 19.2 ± 0.32 | 17.8 ± 0.65 | 186.0 ± 53.1 | 1.52 ± 0.56 | > 30 µM | 94% | 100% | 100% | > 30 µM |  |  |
